Source: US20040229791A1, “Compositions and methods of modulating TGF-beta activity by fatty acids” (priority 2002, published 2004)

T1: TGF-β1-α2M* complex (Homo sapiens, UniProt P01023)
T1 construct: was purified from pooled citrate-treate human plasma; from tissue; host or cells: pooled citrate-treated human plasma
T1 sequence (P01023 24-1474): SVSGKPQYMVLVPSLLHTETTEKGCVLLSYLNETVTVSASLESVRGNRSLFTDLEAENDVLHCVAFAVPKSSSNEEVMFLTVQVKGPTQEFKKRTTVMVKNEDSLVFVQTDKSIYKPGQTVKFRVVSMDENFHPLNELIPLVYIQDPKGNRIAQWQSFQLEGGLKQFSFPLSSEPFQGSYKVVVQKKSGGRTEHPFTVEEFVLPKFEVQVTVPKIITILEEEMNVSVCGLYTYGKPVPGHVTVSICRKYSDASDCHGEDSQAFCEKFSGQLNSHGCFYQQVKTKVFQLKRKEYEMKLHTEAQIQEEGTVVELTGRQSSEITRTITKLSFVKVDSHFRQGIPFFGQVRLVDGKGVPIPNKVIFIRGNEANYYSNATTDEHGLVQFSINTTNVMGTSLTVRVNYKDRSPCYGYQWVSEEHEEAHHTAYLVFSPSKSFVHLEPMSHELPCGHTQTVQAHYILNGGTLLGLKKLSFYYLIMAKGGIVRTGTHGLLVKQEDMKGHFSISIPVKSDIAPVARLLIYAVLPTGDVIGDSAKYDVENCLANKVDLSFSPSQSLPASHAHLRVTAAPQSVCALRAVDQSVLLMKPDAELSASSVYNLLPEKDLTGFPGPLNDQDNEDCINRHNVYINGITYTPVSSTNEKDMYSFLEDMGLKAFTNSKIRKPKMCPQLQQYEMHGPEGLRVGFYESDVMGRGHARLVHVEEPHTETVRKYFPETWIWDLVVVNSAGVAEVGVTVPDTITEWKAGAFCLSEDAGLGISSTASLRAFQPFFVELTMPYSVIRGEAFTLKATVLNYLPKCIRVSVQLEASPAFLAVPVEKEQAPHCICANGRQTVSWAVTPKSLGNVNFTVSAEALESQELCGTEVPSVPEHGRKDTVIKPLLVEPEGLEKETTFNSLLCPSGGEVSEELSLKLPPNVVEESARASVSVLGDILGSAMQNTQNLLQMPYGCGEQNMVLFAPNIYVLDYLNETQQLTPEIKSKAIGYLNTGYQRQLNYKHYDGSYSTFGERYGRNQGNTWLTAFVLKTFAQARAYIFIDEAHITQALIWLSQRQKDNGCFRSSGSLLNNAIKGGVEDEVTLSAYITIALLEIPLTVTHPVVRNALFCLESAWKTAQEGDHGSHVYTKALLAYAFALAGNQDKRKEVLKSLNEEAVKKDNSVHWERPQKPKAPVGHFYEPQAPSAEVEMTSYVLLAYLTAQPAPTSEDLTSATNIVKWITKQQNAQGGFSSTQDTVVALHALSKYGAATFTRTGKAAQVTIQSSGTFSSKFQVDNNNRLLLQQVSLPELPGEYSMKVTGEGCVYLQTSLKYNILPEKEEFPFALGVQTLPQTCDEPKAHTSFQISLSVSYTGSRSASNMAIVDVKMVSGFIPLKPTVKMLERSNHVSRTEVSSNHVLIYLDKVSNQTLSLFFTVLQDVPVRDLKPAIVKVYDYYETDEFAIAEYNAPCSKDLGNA


Assays:
[1] = molecular target: T1, TGF-β1-α2M* complex; test: Inhibition of 125I-TGF-β1 and α2M* complex formation (5% non-denaturing PAGE, autoradiography); format: binding; conditions: for IC50: ~1 nM 125I-TGF-β1, 10 μg α2M* in 0.05 ml, 30 min room temperature, non-denaturing PAGE, read-out: IC50 for inhibiting complex formation between TGF-β1 and α2M*
Method: Saturated and unsaturated fatty acids are present in plasma and tissues (25,26). The effects of various concentrations of saturated fatty acids on the formation of complexes between ^125I-TGF ? β1 and ? 2M* were examined. ^125I-TGF- ? 1 (1 nM) was incubated μg/ml) in the presence of various concentrations of n-caprylic acid ([…]), lauric acid (12 carbon atoms), myristic acid (14 carbon atoms), palmitic acid (16 carbon atoms) and stearic acid (18 carbon atoms). After 30 min at room temperature, the reaction mixture was analyzed by 5% non-denaturing PAGE and autoradiography, a standard method form determining complex formation between TGF-β and α2M* (12). […] At 100 μM, it inhibited 20% of the complex formation between TGF ? β1 and α2M*. Esterification consistently abolished the inhibitory activities of the fatty acids.
Complex formation of ^125I-TGF-β and ? 2M*—The reaction mixture contained 10 μg of . α2M*, ˜1 nM of ^125I-TGF- ? 1, ^125I-TGF ? β2 or ^125I-TGF ? acids (dissolved in 100% ethanol) in 0.05 ml of 50 mM HEPES-NaOH buffer, pH 7.4. The final concentration of ethanol in the reaction mixture was 0.5%. These fatty acids and fatty acid derivatives were soluble under the experimental conditions. After 30 min at room temperature, the complex formation of ^125I-TGF- ? and. α2M* was determined by 5% non-denaturing polyacrylamide gel electrophoresis (PAGE) or by 7.5% SDS-PAGE following cross-linking by 0.6 mM DSS. After electrophoresis, the gel was stained with Coomassie blue and analyzed by autoradiography. The ^125I-TGF- ? - ? 2M* complex which co-migrated with free ? 2M* was quantified using a PhosphoImager (Fuji).

[2] = system: Mv1Lu cells; test: [Methyl-3H]-thymidine incorporation assay, TGF-β2-induced growth inhibition; format: cell-based, mink; conditions: 1 pM, absence of α2M*
Description: The levels of TGF ? β and ? 2M* also increase dramatically. α2M* is capable of inhibiting TGF- ? activity by forming complexes with TGF- ? and thus preventing it from binding to TGF ? β receptors in cells involved. Fatty acids may potentiate TGF ? β activity by blocking complex formation of ? 2M* and TGF ? β under these conditions. To test this possibility, we determined the effects of arachidonic acid on ^125I-TGF- ? 2 binding (in the presence and absence of α2M*) to Mv1Lu cells. ? 2M* is known to inhibit TGF- ? 2 more strongly than TGF ? β1 binding to T receptors in cells (13). Various concentrations of ^125I-TGF- ? 2 were preincubated with 200 μg/ml of ? 2M* in the presence or absence of 30 μM arachidonic acid for 30 min prior to the performance of binding assays in Mv1Lu cells. […] The residual ^125I-TGF- ? binding associated with the cells after ? 2M* inhibition was mainly due to non-specific binding of ^125I-TGF- ? 2. […] In the presence of 200 μg/ml of ? 2M*, the dose-response curve of TGF ? β2 shifted to the right. […] Addition of arachidonic acid at 0.5 and 1 μM reversed the inhibitory effect of. α2M* on TGF- ? 2-induced growth inhibition as measured by [methyl-^3H]-thymidine incorporation.
[Methyl-^3H]-Thymidine Incorporation Assay—Mv1Lu cells were plated at a cell density of 7.5×10^4 cells/well in DMEM containing 0.1% fetal calf serum in 48-well cluster dishes. After 4 hr at 37° C. (to allow cell adherence), cells were treated with various concentrations of TGF- ? 2,2M* (0 or 200 μg/ml) and arachidonic acid ([…] or 1 μM). After 1h at 37° C., cells were pulsed with 1 μCi/ml [methyl-^3H]-thymidine for 2 hr. The [methyl-^3H]-th incorporation into cellular DNA was carried out in triplicate as described previously (23).

IC50 [1] | Molecule | also measured
 | CCCCCC/C=C\CCCCCCCC(=O)O [palmitoleic acid] | activity compared with saturated counterparts of identical chain length [1]: weaker than their saturated counterparts
26 ± 3.1 µM | CC/C=C\C/C=C\C/C=C\CCCCCCCC(=O)O [linolenic acid] | 
68 µM | CCCCCCCCCCCC(=O)O [lauric acid] | 
5.2 ± 2 µM | CCCCCCCC/C=C\CCCCCCCC(=O)O [oleic acid] | 
30 µM | CCCCCC=CCC=CCC=CCC#CCCCC(=O)O [ETYA, 8, 11, 14 eicosatrien-5-ynoic acid] | 
 | TGF-β2: transforming growth factor β isoform 2, 25-kDa dimeric protein (protein, UniProt P61812 303-414, looked up) Transforming growth factor …: ALDAAYCFRNVQDNCCLRPLYIDFKRDLGWKWIHEPKGYNANFCAGACPYLWSSDTQHSRVLSLYNTINPEASASPCCVSQDLEPLTILYYIGKTPKIEQLSNMIVKSCKCS | inhibition of [methyl-3H]-thymidine incorporation into DNA [2]: approximately 25%
